Source: patent US20150183802A1, “TRICYCLIC SULFONAMIDE DERIVATIVES” (NOVARTIS AG, priority 2013, published 2015)

What follows are molecules tested against T1, hNav1.7 channels (Homo sapiens, UniProt Q15858) (assay: hNav1.7 channel in vitro patch-clamp assay). Settings: stable HEK293 cell line expressing hNav1.7; whole cell patch-clamp (QPatch HTX and/or conventional), room temperature; voltage protocol not given.
T1 construct: host or cells: HEK293
Format: cell-based
Protocol: hNav1.7 Channel In Vitro Patch-Clamp Assay
Cells: Sable HEK293 (human embryonic kidney) cell line expressing hNav1.7 channels was used in the assay. The cell line was obtained from Millipore (Millipore Corporation, MA).
Patch-clamp recordings: The recordings were performed on QPatch HTX (Sophion Bioscience, Denmark) and/or conventional patch-clamp (Axon Multiclamp 700B systems, Molecular Devices, CA) platforms at room temperature, using whole cell patch-clamp techniques. The composition of extracellular solution was (in mM): HEPES 5, NaCl 40, KCl 3, CaCl2 1, MgCl2 1, Choline Chloride 100. Adjust pH to 7.2 with 1N NaOH, osmolarity to 300-310 mOsm with sucrose. The composition of intracellular solution was (in mM): HEPES 10, NaCl 10, Na2ATP 1, MgCl2 2, KF 135, EGTA 10. Adjust pH to 7.2 with 1N NaOH, osmolarity to 290-300 mOsm with sucrose.
For conventional patch-clamp, 35 mm culture dishes containing hNav1.7 cells were placed on the stage of an inverted microscope and continuously perfused with extracellular solution from a perfusion system (Biologic Rapid solution changer, RSC-160, ˜1 ml/min). […] The recordings were controlled by pCLAMP10 software. Test compounds were dissolved in 100% DMSO to make stock solutions for each test concentration, and then diluted into extracellular solution to achieve final concentration for testing. Final DMSO concentration was less than 0.3%. Two voltage protocols were used in hNav1.7 assay: for non-inactivated protocol, the sodium currents were elicited by a 2 ms pulse to −10 mV from a holding potential of −110 mV. For inactivated protocol, the holding potential was set at V1/2. The voltage was firstly stepped to −110 mV for 50 ms, then to −10 mV for 2 ms and then stepped back to holding potential. In both protocols the voltage command was given in every 10 s. Compound effect (% inhibition) was determined by difference in current amplitude before and after the application of test compounds. IC50 values were determined from concentration-response curves that were obtained with Hill fitting.
For QPatch HTX assay, hNav1.7 cells grown to 50%-80% confluence were rinsed with DPBS and dissociated with Tryple (Invitrogen, 12605-010). The dissociated cells were then mixed with extracellular solution. After centrifuge, the cells were resuspended in extracellular solution and used in the QPatch experiment. The whole-cell protocols, voltage protocols and application protocols were established with QPatch Assay Software 3.4 (Sophion Bioscience, Denmark). Only the inactivated protocol was used in the QPatch assay.

T1 sequence (Q15858 whole entry): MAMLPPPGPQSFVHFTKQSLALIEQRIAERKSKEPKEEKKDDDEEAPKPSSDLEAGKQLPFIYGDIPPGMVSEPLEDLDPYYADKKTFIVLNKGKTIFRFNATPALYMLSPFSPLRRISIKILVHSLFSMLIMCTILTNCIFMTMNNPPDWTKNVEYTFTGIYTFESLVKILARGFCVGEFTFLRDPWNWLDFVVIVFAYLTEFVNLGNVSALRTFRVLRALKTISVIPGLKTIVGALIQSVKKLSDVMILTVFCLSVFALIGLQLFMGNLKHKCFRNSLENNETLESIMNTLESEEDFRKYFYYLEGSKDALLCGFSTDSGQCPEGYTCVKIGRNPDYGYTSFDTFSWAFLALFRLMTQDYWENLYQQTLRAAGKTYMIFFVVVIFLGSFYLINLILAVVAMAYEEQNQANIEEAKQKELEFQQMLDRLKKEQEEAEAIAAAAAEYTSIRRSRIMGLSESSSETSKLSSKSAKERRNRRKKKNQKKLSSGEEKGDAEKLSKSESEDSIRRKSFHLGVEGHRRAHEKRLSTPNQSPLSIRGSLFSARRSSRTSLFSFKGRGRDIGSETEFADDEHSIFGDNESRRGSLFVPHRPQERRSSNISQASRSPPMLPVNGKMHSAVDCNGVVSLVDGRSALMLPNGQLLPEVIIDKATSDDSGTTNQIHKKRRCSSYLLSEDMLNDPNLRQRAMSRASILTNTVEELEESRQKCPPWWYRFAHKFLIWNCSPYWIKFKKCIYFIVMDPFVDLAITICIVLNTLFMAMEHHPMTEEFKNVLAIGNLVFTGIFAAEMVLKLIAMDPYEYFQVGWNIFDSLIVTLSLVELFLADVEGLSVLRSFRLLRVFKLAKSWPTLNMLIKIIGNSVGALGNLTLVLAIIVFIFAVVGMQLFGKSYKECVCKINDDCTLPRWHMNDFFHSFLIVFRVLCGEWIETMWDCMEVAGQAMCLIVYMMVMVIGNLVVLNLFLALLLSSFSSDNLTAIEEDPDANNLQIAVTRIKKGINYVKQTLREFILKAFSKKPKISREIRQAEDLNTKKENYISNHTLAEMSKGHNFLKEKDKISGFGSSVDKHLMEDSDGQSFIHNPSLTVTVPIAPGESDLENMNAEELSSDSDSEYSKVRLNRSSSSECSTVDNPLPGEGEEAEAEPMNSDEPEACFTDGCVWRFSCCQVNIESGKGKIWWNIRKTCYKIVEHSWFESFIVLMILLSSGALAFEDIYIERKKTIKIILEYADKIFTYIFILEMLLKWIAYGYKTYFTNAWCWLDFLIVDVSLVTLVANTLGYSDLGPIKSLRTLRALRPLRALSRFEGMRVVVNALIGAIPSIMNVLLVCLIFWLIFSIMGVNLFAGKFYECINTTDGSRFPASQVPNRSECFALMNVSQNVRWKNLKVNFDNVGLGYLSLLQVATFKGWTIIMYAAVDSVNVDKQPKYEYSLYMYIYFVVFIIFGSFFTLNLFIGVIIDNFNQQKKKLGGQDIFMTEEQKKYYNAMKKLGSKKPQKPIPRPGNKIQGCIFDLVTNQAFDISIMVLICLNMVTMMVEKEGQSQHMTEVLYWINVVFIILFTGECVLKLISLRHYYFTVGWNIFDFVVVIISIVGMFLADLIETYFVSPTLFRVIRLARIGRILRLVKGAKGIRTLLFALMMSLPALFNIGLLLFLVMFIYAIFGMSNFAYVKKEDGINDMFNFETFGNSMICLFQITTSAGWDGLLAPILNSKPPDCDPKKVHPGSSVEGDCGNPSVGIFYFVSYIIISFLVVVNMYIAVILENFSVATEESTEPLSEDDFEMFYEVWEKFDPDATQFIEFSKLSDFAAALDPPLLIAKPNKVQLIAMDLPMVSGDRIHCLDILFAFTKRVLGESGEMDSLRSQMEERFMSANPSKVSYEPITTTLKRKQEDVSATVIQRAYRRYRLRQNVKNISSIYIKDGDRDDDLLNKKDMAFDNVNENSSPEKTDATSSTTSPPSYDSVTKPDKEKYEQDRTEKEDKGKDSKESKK

Row | SMILES | IC50
1 | O=C1N(c2cnc(OC3CCC3)c(Cl)c2)c2cc3onc(NS(=O)(=O)C4CC4)c3cc2C12CC2 [Example 21, N-(7′-(5-chloro-6-cyclobutoxypyridin-3-yl)-6′-oxo-6′,7′-dihydrospiro[cyclopropane-1,5′-isoxazolo[4,5-f]indol]-3′-yl)cyclopropanesulfonamide] | 150 nM
2 | CC(C)COc1ncc(N2C(=O)C(C)(C)c3cc4c(NS(=O)(=O)C5CC5)noc4cc32)cc1Cl [Example 36, N-(7-(5-chloro-6-isobutoxypyridin-3-yl)-5,5-dimethyl-6-oxo-6,7-dihydro-5H-isoxazolo[4,5-f]indol-3-yl)cyclopropanesulfonamide] | 70 nM
3 | O=C1N(c2cnc(OCC3CCC3)c(Cl)c2)c2cc3onc(NS(=O)(=O)C4CC4)c3cc2C12CC2 [Example 25, N-(7′-(5-chloro-6-(cyclobutylmethoxy)pyridin-3-yl)-6′-oxo-6′,7′-dihydrospiro[cyclopropane-1,5′-isoxazolo[4,5-f]indol]-3′-yl)cyclopropanesulfonamide] | 80 nM
4 | Cc1nn(-c2ccc(Cl)c(Cl)c2)c2cc3onc(NS(=O)(=O)C4CC4)c3cc12 [Example 46, N-(7-(3,4-dichlorophenyl)-5-methyl-7H-isoxazolo[4,5-f]indazol-3-yl)cyclopropanesulfonamide] | 100 nM
5 | CS(=O)(=O)Nc1noc2cc3c(cc12)C1(CC1)C(=O)N3c1ccc(Cl)c(Cl)c1 [Example 31, N-(7′-(3,4-dichlorophenyl)-6′-oxo-6′,7′-dihydrospiro[cyclopropane-1,5′-isoxazolo[4,5-f]indol]-3′-yl)methanesulfonamide] | 800 nM
6 | CC(C)COc1ncc(-n2c(C(F)(F)F)nc3cc4c(NS(=O)(=O)C5CC5)noc4cc32)cc1Cl [Example 43, N-(7-(5-chloro-6-isobutoxypyridin-3-yl)-6-(trifluoromethyl)-7H-imidazo[4′,5′:4,5]benzo[1,2-d]isoxazol-3-yl)cyclopropanesulfonamide] | 100 nM
7 | CCS(=O)(=O)Nc1noc2cc3c(cc12)C1(CC1)C(=O)N3c1cnc(OCC(C)C)c(Cl)c1 [Example 4, N-(7′-(5-chloro-6-isobutoxypyridin-3-yl)-6′-oxo-6′,7′-dihydrospiro[cyclopropane-1,5′-isoxazolo[4,5-f]indol]-3′-yl)ethanesulfonamide] | 100 nM
8 | Cc1nn(-c2cnc(OCC(C)C)c(Cl)c2)c2cc3onc(NS(=O)(=O)C4CC4)c3cc12 [Example 45, N-(7-(5-chloro-6-isobutoxypyridin-3-yl)-5-methyl-7H-isoxazolo[4,5-f]indazol-3-yl)cyclopropanesulfonamide] | 30 nM
9 | O=C1N(c2cnc(OCC3CC3)c(Cl)c2)c2cc3onc(NS(=O)(=O)C4CC4)c3cc2C12CC2 [Example 28, N-(7′-(5-chloro-6-(cyclopropylmethoxy)pyridin-3-yl)-6′-oxo-6′,7′-dihydrospiro[cyclopropane-1,5′-isoxazolo[4,5-f]indol]-3′-yl)cyclopropanesulfonamide] | 200 nM
10 | Cc1cnc(-c2cnc(OCC(C)C)c(Cl)c2)c2cc3onc(NS(=O)(=O)C4CC4)c3cc12 [Example 60, N-(8-(5-chloro-6-isobutoxypyridin-3-yl)-5-methylisoxazolo[4,5-g]isoquinolin-3-yl)cyclopropanesulfonamide] | 1870 nM
11 | CC(C)COc1ncc(N2C(=O)C3(CC3)c3cc4c(NS(=O)(=O)c5cccs5)noc4cc32)cc1Cl [Example 7, N-(7′-(5-chloro-6-isobutoxypyridin-3-yl)-6′-oxo-6′,7′-dihydrospiro[cyclopropane-1,5′-isoxazolo[4,5-f]indol]-3′-yl)thiophene-2-sulfonamide] | 500 nM
